Patent EP4653424A1, “PYRIDAZINONE PARP INHIBITOR, AND PREPARATION METHOD THEREFOR, AND PHARMACEUTICAL COMPOSITION AND USE THEREOF” (China Pharmaceutical University, priority 2023, dated 2024)

Experiments:
[1] = biological target: T1, PARP7 enzyme (Homo sapiens, UniProt Q7Z3E1); assay: PARP7 Chemiluminescent Assay Kit enzyme inhibition assay; type: biochemical; details: for inhibition at 0.1 µM: compound at 100 nM
T1 construct: purchased BPS Bioscience
T1 sequence (Q7Z3E1 1-657): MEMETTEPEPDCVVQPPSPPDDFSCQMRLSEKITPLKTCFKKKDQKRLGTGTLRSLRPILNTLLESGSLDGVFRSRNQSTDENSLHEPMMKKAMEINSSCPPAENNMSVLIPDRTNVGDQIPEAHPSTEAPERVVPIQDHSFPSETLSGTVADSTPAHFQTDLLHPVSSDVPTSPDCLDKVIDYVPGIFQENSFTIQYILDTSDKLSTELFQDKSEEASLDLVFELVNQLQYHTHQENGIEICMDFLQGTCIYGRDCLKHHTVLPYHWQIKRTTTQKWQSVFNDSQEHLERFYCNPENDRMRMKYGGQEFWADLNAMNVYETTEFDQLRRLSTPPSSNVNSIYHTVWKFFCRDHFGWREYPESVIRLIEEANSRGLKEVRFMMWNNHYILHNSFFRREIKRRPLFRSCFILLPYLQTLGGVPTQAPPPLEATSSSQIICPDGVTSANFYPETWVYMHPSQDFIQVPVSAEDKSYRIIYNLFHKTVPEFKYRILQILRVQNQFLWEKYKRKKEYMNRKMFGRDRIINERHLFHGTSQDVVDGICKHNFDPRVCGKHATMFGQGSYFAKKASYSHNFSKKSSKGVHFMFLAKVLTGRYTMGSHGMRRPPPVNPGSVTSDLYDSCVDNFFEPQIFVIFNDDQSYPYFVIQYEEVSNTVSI
Description: Example 60: Inhibitory activity of compounds against PARP7 enzyme
Materials: PARP7 Chemiluminescent Assay Kit, BPS Bioscience; DMSO, Sinopharm, Nivo, PerkinElmer.
Preparation of 10× PBS: 720 mg of KH2PO4, 45 g of NaCl, and 5.311 g of Na2HPO4·12H2O were dissolved in 500 mL of deionized water. The system was adjusted to pH 7.4, sterilized at 121 °C for 30 min, and cooled, and then preserved at 4 °C for later use.
Preparation of 1 × PBS: 10× PBS was diluted 10-fold with deionized water, i.e., 1 part of 10× PBS was diluted with 9 parts of deionized water.
Preparation of wash buffer: 1 × PBS containing 0.05% Tween-20.
Preparation of 1 × PARP buffer: (prepared right before use) 10× PARP buffer was diluted 10-fold with deionized water and placed on ice for later use.
According to the study requirements, the test compound was diluted to the desired concentration with 100% DMSO, and then diluted 10-fold with 1× PARP buffer to give a 10× compound working solution.
• a. 5× histone mixture was thawed on ice the day before the study; • b. 1× histone mixture was prepared by diluting 5× histone mixture into 1× histone mixture with 1× PBS; 25 µL of 1× histone mixture was added to each well of the test plate and incubated overnight at 4 °C; • c. 100 µL of the blocking buffer was taken per well and added to the test plate, and the plate was incubated at 25 °C for 90 min; • d. After the incubation was completed, the liquid in the test plate was discarded, and the plate was washed 3 times; • e. 2.5 µL of compound working solution was taken from each well and added to the test plate according to the experimental layout; a corresponding volume of 1× PARP buffer containing 10% DMSO was added to the positive control wells (Positive control), and a corresponding volume of 1× PARP buffer was added to the blank control wells (Blank); • f. After the enzyme was completely dissolved, the enzyme stock solution was diluted to 6 ng/µL with 1× PARP buffer; • g. The enzyme solution was added to a test well plate at 10 µL/well, and a corresponding volume of 1× PARP buffer was added to the blank control wells, where the enzyme amount was 60 ng/well. Note: this procedure should be performed on ice; • h. […] ELISA ECL Substrate A and ELISA ECL Substrate B in the kit were mixed in a ratio of 1:1, the mixed solution was added to the test plate at 50 µL/well, luminescence detection was immediately performed using Nivo, and the luminescence value (RLU) was read; • m. […] Enzyme inhibition = 1 - % Enzyme Activity; the IC 50 was calculated using GraphPad Prism 8.

[2] = Caco-2 bidirectional (ABBA) permeability assay; type: in vitro ADME; details: human, Caco-2
Description: (§1) Materials: test compounds I-A-1, I-A-2, and RBN-2397.
(§2) • (1) Caco-2 cell plating • 1. 600 µL of cell culture medium and 100 µL of cell culture medium were added to the wells of […], respectively; • 2. Before cell inoculation, Transwell was pre-incubated at 37 °C and 5% CO2 for 1 h; • 3. 100 µL of cell suspension (4 × 10^5 cells/mL) was seeded into the culture medium and cultured at 37 °C, 5% CO2, and 95% relative humidity for 14-21 days; • 4. The cell culture medium was replaced once every other day in the first 7 days, and once every day after day 7; • 5. The transepithelial electrical resistance (TEER) of the monolayer membrane was measured using EVOM3. • (2) ABBA process • 1. The plate was washed twice with pre-heated HBSS (10 mM HEPES, pH 7.4) and then incubated at 37 °C for 30 min. • 2. Test compounds were prepared in 1 mM DMSO and diluted 200-fold to 5 µM with HBSS (10 mM HEPES, pH 7.4) and HBSS (100 µM Lucifer Yellow, 10 mM HEPES, pH 7.4). • 3. Apical to basal direction: 200 µL of 5 µM working solution (100 µM Lucifer Yellow) was added to the apical compartment, and 600 µL of HBSS (10 mM HEPES, pH 7.4) was added to the basal compartment. • 4. Basal to apical direction: 600 µL of 5 µM working solution was added to the basal compartment, and 200 µL of HBSS (100 µM Lucifer Yellow, 10 mM HEPES, pH 7.4) was added to the apical compartment. • 5. 100 µL of 5 µM working solution was transferred to a sample plate containing 400 µL of cold methanol, and IS* was C0. • 6. The cell plate was incubated at 37 °C, 5% CO2, and 95% relative humidity for 2 h. • 7. 5 µL of the working solution was transferred from the apical compartment and the basal compartment to the plate. After 0.5 h of incubation, the 427 nm excitation values and 536 nm emission values were read by the Lucifer Yellow leakage detector. • 8. After 2 h of incubation, 100 µL of the solution was transferred from the apical and basal compartments with IS* to a sample plate containing 400 µL of cold methanol. • 9. The sample plate was centrifuged at 3220 g for 40 min. • 10. 100 µL of the supernatant was transferred to an assay plate containing an appropriate volume of water for LC-MS/MS analysis. • (3) Calculation
(§3) The apparent permeability coefficient (Papp, cm/s) and the efflux ratio were calculated using Microsoft Excel. Papp = (VA × Cacceptor × 100)/(Area × Time × Cinitial,donor) [formula] Efflux Ratio = (Papp(B−A))/(Papp(A−B)) [formula] Table 3. Physicochemical properties of test compounds

[3] = system: Caco-2 cell; assay: Caco-2 bidirectional (ABBA) permeability assay; type: in vitro ADME
Description: as §1, §2, §3

In the case of `O=c1[nH]ncc(NCC#Cc2ccccc2C(F)(F)F)c1C(F)(F)F` [I-A-1, 4-trifluoromethyl-5-((3-(2-(trifluoromethyl)phenyl)prop-2-yn-1-yl)amino)pyridazin-3(2 H)-one], the IC50 [1] is reported as less than 100 nM, the inhibition at 0.1 µM [1] is reported as no less than 50% and the efflux ratio at 2 h, 5 µM ([2]; Papp(B-A)/Papp(A-B)) is reported as 0.52. The Papp A→B at 2 h, 5 µM ([2]; apical to basal, 5 µM, 2 h) was 39.9 ×10⁻⁶ cm/s, the Papp B→A at 2 h, 5 µM ([2]; basal to apical, 5 µM, 2 h) was 20.9 ×10⁻⁶ cm/s and the efflux ratio ([3]; Caco-2, summary in words) was “lower efflux ratio”. For the same compound, the membrane permeability ([3]; Caco-2, summary in words) was “better membrane permeability”.

In the case of `O=C(CCNc1cn[nH]c(=O)c1C(F)(F)F)c1ccccc1` [I-D-1, 5-((3-oxo-3-phenylpropyl)amino)-4-(trifluoromethyl)pyridazin-3(2 H)-one], the IC50 [1] is reported as less than 100 nM and the inhibition at 0.1 µM [1] is reported as no less than 50%.

With `C[C@@H](COCCC(=O)N1CCN(c2ncc(C(F)(F)F)cn2)CC1)Nc1cn[nH]c(=O)c1C(F)(F)F` [RBN-2397, reference compound] the membrane permeability ([3]; Caco-2, summary in words) was “poor membrane permeability”, the “efflux ratio” value ([3]; Papp(B-A)/Papp(A-B), Caco-2) was 5.9 and the “PappA→B (1E-6 cm/s)” value ([3]; apical to basal, 5 µM, 2 h, Caco-2) was 4.1 1E-6 cm/s. The “PappB→A (1E-6 cm/s)” value ([3]; basal to apical, 5 µM, 2 h, Caco-2) was 24 1E-6 cm/s.
